Active and inactive are the calls of the source. No cut-off for these calls is given here.
What was measured:
[1] = tested on: HT-29; assay: Antiproliferative activity against human HT-29 cells at 1 to 10 uM after 48 hrs by CytoTox-96 non-radioactive assay; format: functional, cell-based
[2] = tested on: HCT-116; assay: Cytotoxicity against human HCT116 cells at 1 to 10 uM after 48 hrs by CytoTox-96 non-radioactive assay; format: functional, cell-based
[3] = tested on: HT-29; assay: Cytotoxicity against human HT-29 cells at 1 to 10 uM after 48 hrs by CytoTox-96 non-radioactive assay; format: functional, cell-based
[4] = tested on: CCD-18Co; assay: Cytotoxicity against human CCD-18Co cells at 1 to 10 uM after 48 hrs by CytoTox-96 non-radioactive assay; format: cell-based
[5] = tested on: HCT-116; assay: Cell cycle arrest in human HCT116 cells assessed as accumulation at G0/G1 phase at 5 uM after 48 hrs (reference value: 38.5%); format: functional
[6] = tested on: HCT-116; assay: Cell cycle arrest in human HCT116 cells assessed as accumulation at S phase at 5 uM after 48 hrs (reference value: 10.9%); format: functional
[7] = tested on: HCT-116; assay: Cell cycle arrest in human HCT116 cells assessed as accumulation at S phase at 10 uM after 48 hrs (reference value: 10.9%); format: functional
[8] = tested on: HCT-116; assay: Cell cycle arrest in human HCT116 cells assessed as accumulation at G2/M phase at 1 uM after 48 hrs (reference value: 21.5%); format: functional
[9] = tested on: HT-29; assay: Cell cycle arrest in human HT-29 cells assessed as accumulation at G0/G1 phase at 2.5 uM after 48 hrs (reference value: 53.9%); format: functional
[10] = tested on: HT-29; assay: Cell cycle arrest in human HT-29 cells assessed as accumulation at G0/G1 phase at 5 uM after 48 hrs (reference value: 53.9%); format: functional
[11] = tested on: HT-29; assay: Cell cycle arrest in human HT-29 cells assessed as accumulation at S phase at 10 uM after 48 hrs (reference value: 9.7%); format: functional
[12] = tested on: HT-29; assay: Cell cycle arrest in human HT-29 cells assessed as accumulation at G2/M phase at 2.5 uM after 48 hrs (reference value: 14.7%); format: functional
[13] = tested on: HT-29; assay: Cell cycle arrest in human HT-29 cells assessed as accumulation at G2/M phase at 5 uM after 48 hrs (reference value: 14.7%); format: functional
[14] = tested on: HT-29; assay: Cell cycle arrest in human HT-29 cells assessed as accumulation at subG1 phase after 48 hrs; format: functional, cell-based
[15] = tested on: HCT-116; assay: Induction of apoptosis in human HCT116 cells assessed as live cells at 5 uM after 48 hrs by Annexin-V and dead cell assay (reference value: 96.75%); format: functional
[16] = tested on: HCT-116; assay: Induction of apoptosis in human HCT116 cells assessed as live cells at 10 uM after 48 hrs by Annexin-V and dead cell assay (reference value: 96.75%); format: functional
[17] = tested on: HCT-116; assay: Induction of apoptosis in human HCT116 cells assessed as early apoptotic cells at 1 uM after 48 hrs by Annexin-V and dead cell assay (reference value: 1.70%); format: functional
[18] = tested on: HCT-116; assay: Induction of apoptosis in human HCT116 cells assessed as early apoptotic cells at 5 uM after 48 hrs by Annexin-V and dead cell assay (reference value: 1.70%); format: functional
[19] = tested on: HCT-116; assay: Induction of apoptosis in human HCT116 cells assessed as early apoptotic cells at 10 uM after 48 hrs by Annexin-V and dead cell assay (reference value: 1.70%); format: functional
[20] = tested on: HCT-116; assay: Induction of apoptosis in human HCT116 cells assessed as late apoptotic cells at 1 uM after 48 hrs by Annexin-V and dead cell assay (reference value: 1.45%); format: functional
[21] = tested on: HCT-116; assay: Induction of apoptosis in human HCT116 cells assessed as late apoptotic cells at 2.5 uM after 48 hrs by Annexin-V and dead cell assay (reference value: 1.45%); format: functional
[22] = tested on: HCT-116; assay: Induction of apoptosis in human HCT116 cells assessed as necrotic cells at 1 uM after 48 hrs by Annexin-V and dead cell assay (reference value: 0.10%); format: functional
[23] = tested on: HCT-116; assay: Induction of apoptosis in human HCT116 cells assessed as necrotic cells at 2.5 uM after 48 hrs by Annexin-V and dead cell assay (reference value: 0.10%); format: functional
[24] = tested on: HCT-116; assay: Induction of apoptosis in human HCT116 cells assessed as necrotic cells at 10 uM after 48 hrs by Annexin-V and dead cell assay (reference value: 0.10%); format: functional
[25] = tested on: HCT-116; assay: Induction of apoptosis in human HCT116 cells assessed as in p53 protein level at 5 uM after 48 hrs by Western blot method relative to beta-actin; format: functional
[26] = tested on: HCT-116; assay: Induction of apoptosis in human HCT116 cells assessed as cyclin E protein level at 2.5 uM after 48 hrs by Western blot method relative to beta-actin; format: functional
[27] = tested on: HCT-116; assay: Induction of apoptosis in human HCT116 cells assessed as cyclin E protein level at 10 uM after 48 hrs by Western blot method relative to beta-actin; format: functional
[28] = tested on: HCT-116; assay: Induction of apoptosis in human HCT116 cells assessed as Bcl-2 protein level at 10 uM after 48 hrs by Western blot method relative to beta-actin; format: functional
[29] = tested on: HCT-116; assay: Induction of apoptosis in human HCT116 cells assessed as caspase-3 protein level at 1 uM after 48 hrs by Western blot method relative to beta-actin; format: functional
[30] = tested on: HT-29; assay: Induction of apoptosis in human HT-29 cells assessed as in p53 protein level at 5 uM after 48 hrs by Western blot method relative to beta-actin; format: functional
[31] = tested on: HT-29; assay: Induction of apoptosis in human HT-29 cells assessed as p21 protein level at 10 uM after 48 hrs by Western blot method relative to beta-actin; format: functional
[32] = tested on: HT-29; assay: Induction of apoptosis in human HT-29 cells assessed as cyclin E protein level at 2.5 uM after 48 hrs by Western blot method relative to beta-actin; format: functional
[33] = tested on: HT-29; assay: Induction of apoptosis in human HT-29 cells assessed as cyclin E protein level at 5 uM after 48 hrs by Western blot method relative to beta-actin; format: functional
[34] = tested on: HT-29; assay: Induction of apoptosis in human HT-29 cells assessed as CDK2 protein level at 10 uM after 48 hrs by Western blot method relative to beta-actin; format: functional
[35] = tested on: HT-29; assay: Induction of apoptosis in human HT-29 cells assessed as Bcl-2 protein level at 10 uM after 48 hrs by Western blot method relative to beta-actin; format: functional
[36] = tested on: HT-29; assay: Induction of apoptosis in human HT-29 cells assessed as cleaved caspase-3 protein level at 2.5 uM after 48 hrs by Western blot method relative to caspase-3; format: functional
[37] = tested on: HT-29; assay: Induction of apoptosis in human HT-29 cells assessed as caspase-3 protein level at 1 uM after 48 hrs by Western blot method relative to beta-actin; format: functional
[38] = tested on: HT-29; assay: Induction of apoptosis in human HT-29 cells assessed as caspase-3 protein level at 2.5 uM after 48 hrs by Western blot method relative to beta-actin; format: functional
[39] = tested on: HT-29; assay: Induction of apoptosis in human HT-29 cells assessed as caspase-3 protein level at 5 uM after 48 hrs by Western blot method relative to beta-actin; format: functional
[40] = tested on: HCT-116; assay: Induction of apoptosis in human HCT116 cells assessed as increase in caspase-3/7 activity at 1 to 10 uM measured after 48 hrs by Caspase-Glo 3/7 assay; format: functional, cell-based
[41] = tested on: HCT-116; assay: Cytotoxicity against human HCT116 cells assessed as reduction in cell viability by MTT assay; format: functional, cell-based

Compound: O=C(OC[C@H]1O[C@@H](OC(=O)c2cc(O)c(O)c(O)c2)[C@H](OC(=O)c2cc(O)c(O)c(O)c2)[C@@H](OC(=O)c2cc(O)c(O)c(O)c2)[C@@H]1OC(=O)c1cc(O)c(O)c(O)c1)c1cc(O)c(O)c(O)c1 [PENTAGALLOYL GLUCOSE]
- Activity [1]: Active
- Activity [2]: Active
- Activity [3]: Active
- Activity [4]: Non-Toxic
- Activity [5]: 17.9%
- Activity [6]: 17.8%
- Activity [7]: 11.8%
- Activity [8]: 18.1%
- Activity [9]: 47.2%
- Activity [10]: 43.9%
- Activity [11]: 13.9%
- Activity [12]: 20.8%
- Activity [13]: 16.3%
- Activity [14]: Dose-dependent effect
- Activity [15]: 93.35%
- Activity [16]: 90.45%
- Activity [17]: 1%
- Activity [18]: 1.85%
- Activity [19]: 3.2%
- Activity [20]: 0.65%
- Activity [21]: 1%
- Activity [22]: 0.1%
- Activity [23]: 0.1%
- Activity [24]: 0.25%
- fold change (FC) [25]: 4.9
- fold change (FC) [26]: 1.6
- fold change (FC) [27]: 0.5
- fold change (FC) [28]: 0.7
- fold change (FC) [29]: 29.6
- fold change (FC) [30]: 3
- fold change (FC) [31]: 0.1
- fold change (FC) [32]: 0.9
- fold change (FC) [33]: 0.8
- fold change (FC) [34]: 0.8
- fold change (FC) [35]: 0.3
- fold change (FC) [36]: 6
- fold change (FC) [37]: 1.6
- fold change (FC) [38]: 4.7
- fold change (FC) [39]: 5.9
- Activity [40]: Active
- IC50 [41]: 1610 nM
